Measured values reported in patent US20230057984A1, “NORMALIZATION OF CULTURE OF CORNEAL ENDOTHELIAL CELLS” (KYOTO PREFECTURAL PUBLIC UNIVERSITY CORPORATION, priority 2011, published 2023).
Read-outs that look alike come from different tables or passages of the source.

Experiments:
[1] = tested on: corneal endothelial failure model (bullous keratopathy model); assay: Transplantation of cultured human corneal endothelial cells to cynomolgus monkey bullous keratopathy model (Example 9); type: in vivo
From the text: Under general anesthesia, the peripheral portion of a cornea of a cynomolgus monkey is cut by 1.5 mm, and a silicon surgical instrument is inserted into an anterior chamber to mechanically currete a corneal endothelial cell, thus creating a bullous keratopathy model. Next, of human corneal endothelial cells cultured by the method according to the present invention ex vivo, 2.0×10^5 were suspended in a basal culture medium, and a ROCK inhibitor having an adhesion promoting effect, Y-27632, was added thereto such that the final concentration would be 100 μmol/l, followed by introduction into the anterior chamber. As a control, 2.0×10^5 human corneal endothelial cells, suspended in a basal culture medium, were introduced without a ROCK inhibitor. After introduction, the model was maintained with its head down for three hours so that the eyeball would be downwards, thus promoting cellular adhesion to the corneal endothelium surface. Therapeutic effects of bullous keratopathy by transplanting a cultured corneal endothelium sheet was evaluated by corneal transparency evaluation through a slit-lamp microscope, and corneal thickness measurement using a ultrasonic tachymeter (FIG. 14). […] Then, similar to Example 2, immunostaining was performed directed to phalloidin, Na^+/K^+-ATPase and ZO-1, followed by taking images using a fluorescence microscope (FIG. 15). […]

[2] = tested on: monkey corneal endothelial cells; assay: Addition of TGF-β to monkey corneal endothelial cells: cell form and immunostaining (Example 4); type: cell-based, cynomolgus monkey
[3] = tested on: monkey corneal endothelial cells; assay: Addition of TGF-β to monkey corneal endothelial cells: Western blot of Na+/K+-ATPase and ZO-1 (Example 4); type: cell-based, cynomolgus monkey; conditions: monkey CEC, TGF-β 0, 1, 3, 10, 30 ng/ml, concentration dependent
[4] = tested on: Smad2; assay: Addition of TGF-β to monkey corneal endothelial cells: Western blot of pSmad2/Smad2 (Example 4); type: cell-based, cynomolgus monkey; conditions: monkey CEC, TGF-β 0, 1, 10 ng/ml
[5] = tested on: Human corneal endothelial cells; conditions: HCEC after subculturing
Method: Next, subculturing was performed with trypsin. Comparison was made between cells cultured in Opti-MEM I Reduced-Serum Medium, Liquid (INVITROGEN catalog number: 31985-070)+8% fetal bovine serum (FBS) (BIOWEST, catalog number: S1820-500)+[…] CaCl2.2H2O (SIGMA catalog number: C7902-500G)+0.08% chondroitin sulfuric acid (SIGMA catalog number: C9819-5G)+20 μg ascorbic acid (SIGMA catalog number: A4544-25G)+50 μg/ml gentamicin (INVITROGEN catalog number: 15710-064)+5 ng/ml EGF (INVITROGEN catalog number: PHG0311) as a normal culture medium, and cells cultured in the above-mentioned culture medium with Smad3 inhibitor (0.3 mM and 3 mM) added thereto.

[6] = tested on: Human corneal endothelial cells; assay: Culture of human corneal endothelial cells with SB203580 in conjunction with SB431542 (Example 7); type: cell-based; conditions: HCEC
Method: Corneal endothelial cells were mechanically exfoliated together with basement membranes from research corneas purchased from the Seattle bank, followed by exfoliating from the basement membranes using collagenase for collection, and then primary culturing. […] In addition, culturing was performed using a base culture medium with SB431542 (1 μmol/l, TOCRIS, catalog number:1614) added thereto, with SB203580 (1 μmol/l, CALBIOCHEM, catalog number: 559389) added thereto, and with SB431542 (1 μmol/l) and SB203580 (1 μmol/l) added thereto.

[7] = tested on: Human corneal endothelial cells; assay: Culture of human corneal endothelial cells with BMP-7: phase-contrast and phalloidin staining (Example 6); type: cell-based
Method: (§1) Next, by using three different concentrations, BMP7 was able to suppress the change in a HCEC to a fibroblast phenotype and to maintain the function thereof. […] Thus, this molecule is used to antagonize an EMT process [Zeisberg M, et al. (2003) Nat Med 9: 964-968], [Simic P, et al. (2007) EMBO Rep 8: 327-331], [Buijs J T, et al. (2007) Am J Pathol 171: 1047-1057], [Zeisberg M, et al. (2007) J Biol Chem 282: 23337-23347]. […] Fibroblast-like HCEC was treated with BMP-7 in the concentration ranging from 10 to 1,000 ng/ml.

[8] = tested on: Human corneal endothelial cells; assay: Na+/K+-ATPase and ZO-1 staining of human corneal endothelial cells treated with BMP-7 (FIG. 10A C-F); type: cell-based
Method: For tissue staining examination, cultured MCECs or HCECs were put into Lab-Tek™ Chamber Slides™ (NUNC A/S, Roskilde, Denmark), fixed with 4% formaldehyde for 10 minutes at a room temperature (RT), and incubated for 30 minutes with 1% bovine serum albumin (BSA). Specifically, cultured MCECs or HCECs on the Lab-Tek™ Chamber Slides™ (NUNCA/S, Roskilde, Denmark) were fixed at a room temperature for 10 minutes in 4% formaldehyde, followed by incubation for 30 minutes together with 1% bovine serum albumin (BSA). In order to examine the phenotype of CEC, immunohistochemical analysis was directed to a protein associated with tight junction, ZO-1 (Zymed Laboratories, Inc., South San Francisco, Calif.), a protein associated with the pumping function, Na^+/K^+-ATPase (Upstate Biotec, Inc., Lake Placid, N.Y.), fibronectin (BD, Franklin Lakes, N.J.), and actine. As markers associated with the function of CEC, ZO-1 and Na^+/K^+-ATPase were used; fibronectin and type 1 collagen were used to evaluate the change in a fibroblastic manner; and staining of actine was used to evaluate the phenotype of the cells. Staining of ZO-1, Na^+/K^+-ATPase, type 1 collagen and fibronectin was each performed using 1:200 dilution of ZO-1 polyclonal antibody, Na^+/K^+-ATPase monoclonal antibody, and fibronectin monoclonal antibody. As to secondary antibody, 1:2000 dilution of Alexa Fluor (registered trademark) 488 label or Alexa Fluor (registered trademark) 594 label goat antimouse IgG (Life Technologies) was used. Staining of actine was performed using 1:400 dilution of Alexa Fluor (registered trademark) 488 label phalloidin (Life Technologies). Next, the nucleus of each cell was stained with DAPI (Vector Laboratories, Inc., Burlingame, Calif.) or PI (Sigma-Aldrich). Next, the slides were observed through a fluorescence microscope (TCS SP2 AOBS; Leica Microsystems, Welzlar, Germany).
as §1

[9] = tested on: HCEC
[10] = fibroblast-like HCEC, BMP-7 10 to 1,000 ng/ml
[11] = HCEC, three concentrations of BMP-7 vs additive-free control

C[C@@H](N)[C@H]1CC[C@H](C(=O)Nc2ccncc2)CC1.Cl.Cl.O (relative stereo) [Y-27632, (R)-(+)-trans-(4-pyridyl)-4-(1-aminoethyl)-cyclohexanecarboxamide 2 hydrochloride 1 hydrate]
therapeutic result: corneal transparency (slit-lamp microscope) and corneal thickness ([1]; 2.0×10^5 cultured human corneal endothelial cells into anterior chamber, with or without Y-27632 100 μmol/l): further improved | therapeutic result: immunostaining of phalloidin, Na+/K+-ATPase and ZO-1 of extracted corneas ([1]; 2.5 months after introduction, cells alone or cells + ROCK inhibitor): further improved

TGF-β: transforming growth factor-β, R&D SYSTEMS catalog number 240-B, added to induce transformation
cell form of normal phenotype after exposure to exogenous TGF-β ([2]; monkey CEC cultured to sub-confluency, TGF-β1 0, 1, 10 ng/mL): transformed into a fibroblast-like cell | staining patterns of Na+/K+-ATPase and ZO-1 in plasma membranes ([2]; monkey CEC normal phenotype exposed to TGF-β): completely lost | expression of Na+/K+-ATPase and ZO-1 at the protein level (Western blot) [3]: significantly decreased | phosphorylation of Smad2 (Western blot) [4]: greatly increased in the concentration dependent form

COc1cc2c(cc1OC)CN(C(=O)/C=C/c1c(-c3ccccc3)n(C)c3ncccc13)CC2 [Smad3 inhibitor, 6,7-dimethoxy-2-((2E)-3-(1-methyl-2-phenyl-1H-pyrrolo[2,3-b]pyridine-3-yl-prop-2-enoyl))-1,2,3,4-tetrahydroiso quinolone]
cell form (phase-contrast microscope) ([5]; Smad3 inhibitor 0.3 mM vs normal culture medium): a layer of polygonal cells with high density were maintained | cell form (phase-contrast microscope) ([5]; Smad3 inhibitor 3 mM vs normal culture medium): a layer of polygonal cells with high density were maintained

C[S+]([O-])c1ccc(-c2nc(-c3ccc(F)cc3)c(-c3ccncc3)[nH]2)cc1 (centres unmarked) [SB203580, 4-[4-(4-fluorophenyl)-2-(4-methylsulfinylphenyl)-1H-imidazole-5-yl]pyridine]
corneal endothelium density ([6]; SB203580 1 μmol/l added to SB431542 1 μmol/l): increased | culture normalization ([6]; SB203580 1 μmol/l in conjunction with SB431542 1 μmol/l, repeated subculturing): culture normalization was enhanced

B1: BMP-7: bone morphogenic protein 7, anti-EMT factor, R&D SYSTEMS catalog number 354-BP (protein, UniProt P18075 293-431, looked up)
Bone morphogenetic protein 7: STGSKQRSQNRSKTPKNQEALRMANVAENSSSDQRQACKKHELYVSFRDLGWQDWIIAPEGYAAYYCEGECAFPLNSYMNATNHAIVQTLVHFINPETVPKPCCAPTQLNAISVLYFDDSSNVILKKYRNMVVRACGCH
cell form (phalloidin staining and phase-contrast microscope) ([7]; HCEC subcultured in conditioned culture medium with BMP-7 100 ng/ml, control transformed, multi-layered): the form of a layer of polygonal cells was maintained | cell form and actine cytoskeleton distribution (phalloidin staining) [7, 10]: allowed for a normal hexagonal cell form, and allowed for cytoskeleton distribution on the cell surface of actine | elongated cell form of fibroblast phenotype (phase-contrast) ([7]; fibroblast-like HCEC, BMP-7 10 to 1,000 ng/ml, concentration-dependent manner): converted into a polygonal cell form | maintaining CEC in polygonal form and contact inhibition phenotype with positive expression of function-associated marker ([8]; HCEC, BMP-7 10 ng/ml): tendency was seen | maintaining CEC in polygonal form and contact inhibition phenotype with positive expression of function-associated marker ([8]; HCEC, BMP-7 100 ng/ml): tendency increased | maintaining CEC in polygonal form and contact inhibition phenotype with positive expression of function-associated marker ([8]; HCEC, BMP-7 1,000 ng/ml): tendency was more significant | percentage of Na+/K+-ATPase positive cell [8, 11]: significantly increased | percentage of ZO-1 positive cell [8, 11]: significantly increased | intracellular localization of Na+/K+-ATPase and ZO-1 [8, 10]: maintained the intracellular localization of Na^+/K^+-ATPase and ZO-1 in a cell membrane | harmful effects with regard to the forms or functions [9]: not seen any clear, harmful effects
